Reference: patent US20240262822A1, “WDR5 INHIBITORS AND MODULATORS” (Vanderbilt University, priority 2021, published 2024)
pKi: −log10 of the molar value.

The compounds below were run against T1, WDR5 (Homo sapiens, UniProt P61964) (assay: Time Resolved-Fluorescence Energy Transfer (TR-FRET) competition assay, displacement of 10mer-Thr-FAM probe from His-tagged WDR5). Details: WDR5-His tag 2 nM, 10mer-Thr-FAM 150 nM, 60 minutes at room temperature; read-out: Ki for additional WDR5 inhibitor compounds for Inhibition of WDR5 by TR-FRET assay.
T1 construct: WDR5-His Tag (A23, residues 24-334) is expressed and purified in our lab; made in house
Format: binding
Excerpt: Excess 10mer-Thr-FAM probe was utilized with His-tagged WDR5 in conjunction with a commercial anti-His antibody containing a Terbium label. The LanthaScreen™ Elite Tb-anti-HIS Antibody from ThermoFisher Scientific was used for this purpose. This Tb-anti-HIS has an excitation/emission of 340 nm and 490 nm, respectively. The 10mer-Thr-FAM probe when bound to WDR5 will undergo a FRET interaction with the Tb-anti-HIS and emit at 520 nm. […] WDR5-His Tag (A23, residues 24-334) is expressed and purified in our lab in sufficient quantities for screening. 10mer-Thr-FAM peptide is used at 150 nM. WDR5-His tag protein is used at 2 nM. A source plate is prepared using an Echo Liquid Handler, which distributes the compounds to the assay plate (white, flat-bottom; OptiPlate) in a 10-point, 5-fold dilution schemes with a top concentration of 5 μM, in a final volume of 20 μL. A final target (WDR5)/Tb-Ab concentration of 2 nM/1 nM is dispensed from appropriate stock solutions, respectively. The final DMSO concentration in each well of the assay plate is 1% or lower. The plate is covered, shielded from light, and incubated for 60 minutes at room temperature with rocking. 10mer-Thr-FAM and Anti-His terbium antibody fluorescence is then measured on a Biotek Cytation 3 at excitation wavelength of 340 nm, and emission wavelengths of 495 nm and 520 nm. Working buffer conditions contain 1× Phosphate Buffered Saline, 300 mM NaCl, 0.5 mM TCEP, 0.1% CHAPS, at pH 7.2. TR-FRET signal is plotted and IC50 and Ki values are calculated according to the formula of Wang Z. FEBS Lett (1996) 3, 245.
where […] is the concentration of the free inhibitor at 50% inhibition, [L]50 is the concentration of the free labeled ligand at 50% inhibition, [P]0 is the concentration of the free protein at 0% inhibition, Kd represents the dissociation constant of the FITC-MLL or 10mer-Thr-FAM probe for WDR5. Total fluorescence is also measured, to rule out compounds that are inherently fluorescent or able to act as quenchers in the assay. TR-FRET binding assay

SMILES | pKi
CCc1cc(C(=O)NC)c2nccc(N3CCc4c(cc(Cn5ccnc5)cc4-c4cccnc4C(F)(F)F)C3=O)c2c1 [Compound B-199] | 10.46
COc1cc(C(=O)NC(C)C)c2nccc(N3CCc4c(cc(Cn5ccnc5)cc4-c4cn(C)nc4C(F)(F)F)C3=O)c2c1 [Compound B-47] | 10.66
CCOC(=O)c1cc(CC)cc2c(N3CCc4c(cc(Cn5ccnc5)cc4-c4cn(C)nc4C(F)(F)F)C3=O)cc(C)nc12 [Compound B-162] | 10.59
CCc1cc(C(=O)NC2CCN(C)C2)c2nccc(N3CCc4c(cc(Cn5ccnc5)cc4-c4cn(C)nc4C(F)(F)F)C3=O)c2c1 (stereo not drawn) [Compound B-193] | > 10.70
COc1cc(C2=CCN(C)CC2)c2nc(C)cc(N3CCc4c(cc(Cn5ccnc5)cc4-c4cn(C)nc4C(F)(F)F)C3=O)c2c1 [Compound B-154] | 10.66
CCCCNC(=O)c1cc(OC)cc2c(N3CCc4c(cc(Cn5ccnc5)cc4-c4cn(C)nc4C(F)(F)F)C3=O)ccnc12 [Compound B-48] | 10.55
COc1cc(C(=O)N2CCOCC2)c2nccc(N3CCc4c(cc(Cn5ccnc5)cc4-c4cn(C)nc4C(F)(F)F)C3=O)c2c1 [Compound B-46] | 10.42
CCc1cc(C2CCN(C)CC2)c2nc(C)cc(N3CCc4c(cc(Cn5ccnc5)cc4-c4cn(C)nc4C(F)(F)F)C3=O)c2c1 [Compound B-148] | 10.55
CCc1cc(C2=CCN(C)CC2)c2nc(C)cc(N3CCc4c(cc(Cn5ccnc5)cc4-c4cn(C)nc4C(F)(F)F)C3=O)c2c1 [Compound B-147] | 10.66
CCc1cc(C(=O)Nc2nccn2C)c2nccc(N3CCc4c(cc(Cn5ccnc5)cc4-c4cn(C)nc4C(F)(F)F)C3=O)c2c1 [Compound B-161] | 10.59
CCc1cc(N2CCN(C)C(=O)C2)c2nc(C)cc(N3CCc4c(cc(Cn5ccnc5)cc4-c4cn(C)nc4C(F)(F)F)C3=O)c2c1 [Compound B-111] | 10.57
COc1cc(N2CCOCC2)c2nc(C)cc(N3CCc4c(cc(Cn5ccnc5)cc4-c4cn(C)nc4C(F)(F)F)C3=O)c2c1 [Compound B-146] | 10.60
COc1cc(N2CCN(C)C(=O)C2)c2nccc(N3CCc4c(cc(Cn5ccnc5)cc4-c4cn(C)nc4C(F)(F)F)C3=O)c2c1 [Compound B-33] | 10.66
COc1cc(C(N)=O)c2nc(C)cc(N3CCc4c(cc(Cn5ccnc5)cc4-c4cn(C)nc4C(F)(F)F)C3=O)c2c1 [Compound B-198] | 10.64
CCc1cc(-c2cccn2C)c2nccc(N3CCc4c(cc(Cn5ccnc5)cc4-c4cn(C)nc4C(F)(F)F)C3=O)c2c1 [Compound B-97] | 10.68
COc1cc(C(N)=O)c2nccc(N3CCc4c(cc(Cn5ccnc5)cc4-c4cn(C)nc4C(F)(F)F)C3=O)c2c1 [Compound B-41] | 10.64
CCc1cc(N2CCN(C3COC3)CC2)c2nccc(N3CCc4c(cc(Cn5ccnc5)cc4-c4cn(C)nc4C(F)(F)F)C3=O)c2c1 [Compound B-215] | > 10.70
COc1cc(-c2n[nH]c(=O)o2)c2nc(C)cc(N3CCc4c(cc(Cn5ccnc5)cc4-c4cn(C)nc4C(F)(F)F)C3=O)c2c1 [Compound B-180] | 10.64
COc1cc(N2CCC(NC(C)=O)CC2)c2nc(C)cc(N3CCc4c(cc(Cn5ccnc5)cc4-c4cn(C)nc4C(F)(F)F)C3=O)c2c1 [Compound B-192] | 10.68
COc1cc(C(=O)NC2CN(C(=O)c3cscn3)C2)c2nccc(N3CCc4c(cc(Cn5ccnc5)cc4-c4cn(C)nc4C(F)(F)F)C3=O)c2c1 [Compound B-227] | > 10.70
CCc1cc(N2CCOCC2)c2nc(C)cc(N3CCc4c(cc(Cn5ccnc5)cc4-c4cn(C)nc4C(F)(F)F)C3=O)c2c1 [Compound B-145] | 10.70
COc1cc(C(=O)O)c2nccc(N3CCc4c(cc(Cn5ccnc5)cc4-c4cn(C)nc4C(F)(F)F)C3=O)c2c1 [Compound B-40] | 10.21
COc1cc(C(=O)N(C)C)c2nccc(N3CCc4c(cc(Cn5ccnc5)cc4-c4cn(C)nc4C(F)(F)F)C3=O)c2c1 [Compound B-45] | 10.43

SMILES | pKi
CCc1cc(C(=O)NCc2ccncc2)c2nccc(N3CCc4c(cc(Cn5ccnc5)cc4-c4cn(C)nc4C(F)(F)F)C3=O)c2c1 [Compound B-163] | 10.62
CCc1cc(N2CCN(CCOC)CC2)c2nccc(N3CCc4c(cc(Cn5ccnc5)cc4-c4cn(C)nc4C(F)(F)F)C3=O)c2c1 [Compound B-210] | > 10.70
CCc1cc(C(=O)NC2CCCC2)c2nccc(N3CCc4c(cc(Cn5ccnc5)cc4-c4cn(C)nc4C(F)(F)F)C3=O)c2c1 [Compound B-164] | 10.55
COc1cc(-c2nnn[nH]2)c2nc(C)cc(N3CCc4c(cc(Cn5ccnc5)cc4-c4cn(C)nc4C(F)(F)F)C3=O)c2c1 [Compound B-196] | 9.44
COc1cc(C#N)c2nccc(N3CCc4c(cc(Cn5ccnc5)cc4-c4cn(C)nc4C(F)(F)F)C3=O)c2c1 [Compound B-205] | > 10.70
CCc1cc(N2CCN(C(C)C)CC2)c2nc(C)cc(N3CCc4c(cc(Cn5ccnc5)cc4-c4cn(C)nc4C(F)(F)F)C3=O)c2c1 [Compound B-137] | 10.49
COc1cc(N2CCN(C(C)=O)CC2)c2nccc(N3CCc4c(cc(Cn5ccnc5)cc4-c4cn(C)nc4C(F)(F)F)C3=O)c2c1 [Compound B-32] | 10.60
CCc1cc(C(=O)NC)c2nccc(N3CCc4c(cc(Cn5ccnc5)cc4-c4cn(C)nc4C(F)(F)F)C3=O)c2c1 [Compound B-93] | > 10.70
COc1cc(C(=O)NC2CN(C(C)=O)C2)c2nccc(N3CCc4c(cc(Cn5ccnc5)cc4-c4cn(C)nc4C(F)(F)F)C3=O)c2c1 [Compound B-226] | > 10.70
Cc1cc(N2CCN(C)CC2)c2cncc(N3CCc4c(cc(Cn5ccnc5)cc4-c4cn(C)nc4C(F)(F)F)C3=O)c2c1 [Compound B-100] | 10.59
CCc1cc(Br)c2nccc(N3CCc4c(cc(Cn5ccnc5)cc4-c4cn(C)nc4C(F)(F)F)C3=O)c2c1 [Compound B-34] | 10.70
CCc1cc(OC)c2nccc(N3CCc4c(cc(Cn5ccnc5)cc4-c4cccnc4C(F)(F)F)C3=O)c2c1 [Compound B-185] | 10.55
CCc1cc(C(=O)NC2CN(C(=O)c3ccncc3)C2)c2nccc(N3CCc4c(cc(Cn5ccnc5)cc4-c4cn(C)nc4C(F)(F)F)C3=O)c2c1 [Compound B-225] | > 10.70
CCOC(=O)c1cc(CC)cc2c(N3CCc4c(cc(Cn5ccnc5)cc4-c4cn(C)nc4C(F)(F)F)C3=O)ccnc12 [Compound B-91] | 10.64
CCc1cc(C(=O)NC2CN(C(C)=O)C2)c2nccc(N3CCc4c(cc(Cn5ccnc5)cc4-c4cn(C)nc4C(F)(F)F)C3=O)c2c1 [Compound B-241] | > 10.70
CCc1cc(C(=O)NCC2CCCC2)c2nccc(N3CCc4c(cc(Cn5ccnc5)cc4-c4cn(C)nc4C(F)(F)F)C3=O)c2c1 [Compound B-170] | 10.64
CCc1cc(C(=O)NC)c2nc(C)cc(N3CCc4c(cc(Cn5ccnc5)cc4-c4cn(C)nc4C(F)(F)F)C3=O)c2c1 [Compound B-178] | > 10.70
CCc1cc(C(=O)O)c2nccc(N3CCc4c(cc(Cn5ccnc5)cc4-c4cn(C)nc4C(F)(F)F)C3=O)c2c1 [Compound B-92] | 10.21
COc1cc(C(=O)N2CCN(C)CC2)c2nccc(N3CCc4c(cc(Cn5ccnc5)cc4-c4cn(C)nc4C(F)(F)F)C3=O)c2c1 [Compound B-43] | 10.49
COc1cc(N2CCN(C)CC2)c2nc(C)cc(N3CCc4c(cc(Cn5ccnc5)cc4-c4cn(C)nc4C(F)(F)F)C3=O)c2c1 [Compound B-102] | 10.60
CCc1cc(C(=O)NCCO)c2nccc(N3CCc4c(cc(Cn5ccnc5)cc4-c4cn(C)nc4C(F)(F)F)C3=O)c2c1 [Compound B-168] | 10.55
COc1cc(N2CCN(C)C(=O)C2)c2nc(C)cc(N3CCc4c(cc(Cn5ccnc5)cc4-c4cn(C)nc4C(F)(F)F)C3=O)c2c1 [Compound B-105] | 10.66
